This is an account of results in patent US4092420A, “Novel soft N-chloroamino alcohol derivatives exhibiting antibacterial activity” (INTERx Research Corporation, priority 1977, dated 1978).

The term MIC denotes the smallest concentration in the dilution series that meets the test's criterion for growth inhibition. For orientation: solubility means how much of the substance goes into solution per volume.

In data set [1] the test system is P. aeruginosa. Kind of data set: Minimal inhibitory concentration (MIC), Example V. Particulars: Pseudomonas aeruginosa. The data set is classed as cell-based. The protocol:
(§1) THE ANTIBACTERIAL SCREEN - EXAMPLE V
(§2) THE ANTIBACTERIAL SCREEN - EXAMPLES W - Z (Autotiter IV)
(§3) (a) Compounds. All compounds to be screened are weighed (approx. 10 mg) on the day preceding the test date. Each compound is solubilized on the day of assay in appropriate solvent and diluted automatically in the Autotiter IV with distilled water (buffer can be employed here also).
(§4) Bacteria: Staphylococcus aureas Smith (or 209), Escherichia coli AB 1932-1, 1100/B22 and Vogel, Streptococcus pyogenes C203 Salmonella typhimurium 14028, Bacillus subtilis 6051-1, Klebsiella pneumoniae 10031, Pseudomonas aeruginosa 9027, Bordetella bronchiseptica 4617 and Staphylococcus epidermidis 12228.
(§5) (c) Inocula. Prior to utilization in the Autotiter IV, all bacteria are cultured for 18-20 hr. (37° C) in tryptose phosphate broth (TP), except, S. pyogenes C203, which is cultured in Brain Heart Infusion broth plus 10% normal horse serum. Immediately prior to testing, each culture is adjusted to an optical density of 0.10 (650 nm), employing a Bausch & Lomb Spectronic 20, and diluted subsequently into double strength medium to approximately 2 × 10^5 viable organisms per ml.
(§6) 1. An automated injector system dispenses 0.05 ml of diluent (sterile H2 O or buffer) to all cups of the autotiter trays from rows 2 through 7.
(§7) 2. The loops (for sequential dilutions of the compounds are moistened by immersion into 70% ethyl alcohol. After removal of excess alcohol by blotting, the loops are moved to the first row of cups in the autotray containing 0.10 ml of the compound to be diluted and tested (usually, this initial concentration is 500 to 1000 mcg/ml, but can be varied upward or downward). The loops are lowered and sequentially transfer the diluted solutions of the compound through row 7.
(§8) Immediately after each dilution is made, each cup is automatically inoculated with 0.05 ml of the appropriate test organism. This inoculation derives from a second injector system containing the organism in double-strength medium. The total operation consists of the automatic dilution of a single compound in each of 8 rows of the Autotiter try.
(§9) After these operations, we reverse the tray and a second compound is diluted over the other one-half of the tray and inoculated, subsequently, with 8 organisms. Thus, for each Autotiter Tray, two compounds are screened against 8 different organisms at dilutions ranging from 1:2 to 1:128.
(§10) (e) Incubation. The inoculated Autotiter trays are incubated at 37° C for 18 - 20 hr. At the end of this period, each tray is examined for the presence or absence of growth (turbidity). The lowest concentration of the compound inhibiting growth is recorded as the minimal inhibitory concentration (MIC).

Data set [2] concerns S. aureus. Briefly: Minimal inhibitory concentration (MIC), Example V. The data set is classed as cell-based. The following applies: Staphylococcus aureus. The protocol:
as §1, §2, §3, §4, §5, §6, §7, §8, §9, §10

The subject of another data set is S. pyogenes. Briefly: Minimal inhibitory concentration (MIC), Example V. The data set is classed as cell-based. Particulars: Streptococcus pyogenes.
The test system of the next data set is A. niger. Kind of data set: Minimal inhibitory concentration (MIC), Example V. The following applies: Aspergillus niger. The data set is classed as cell-based.
Text: (§11) MINIMAL INHIBITORY CONCENTRATION OF 2-AMINO-2-METHYL-1-PROPYL
(§12) ^a Minimal inhibitory concentration expressed in parts per million
(§13) sequence inhibited the test organism at the higher concentrations.
as §1

Another data set relates to T. mentagrophytes. Kind of data set: Minimal inhibitory concentration (MIC), Example V. The data set is classed as cell-based. The following applies: Trichophyton mentagrophytes.
Text: as §11, §12, §13, §1

Data set [3] relates to E. coli. Briefly: Minimal inhibitory concentration (MIC), Example V. Particulars: Escherichia coli. The data set is classed as cell-based.
Text: as §11, §12, §13, §1

In the next data set the test system is C. albicans. Briefly: Minimal inhibitory concentration (MIC), Example V. The data set is classed as cell-based. Particulars: Candida albicans.
Text: MINIMAL INHIBITORY CONCENTRATION OF 2-AMINO-2-METHYL-1-PROPYL […]
as §1

Data set [4] relates to K. pneumoniae. Briefly: Minimal inhibitory concentration (MIC), Example V. The data set is classed as cell-based. Particulars: Klebsiella pneumoniae. As to the method:
as §11, §12, §13, §1
Klebsiella pneumoniae ATCC# 10031
as §2, §3, §4, §5, §6, §7, §8, §9, §10

Data set [5] can be described thus: Solubility in 30% methanol: 0.1 M sodium dihydrogen phosphate, pH 7.0. The data set is classed as physicochemical. The following applies: 0.1 m nah2po4, pH 7, organic solvent or mixture, Concentration (footnote: Solubility in 30% methanol: 0.1 M sodium dihydrogen phosphate, pH 7.0).
For data set [6], the system named is P. aeruginosa. Briefly: Contact germicidal efficiency (sterilization time). The data set is classed as cell-based, Pseudomonas aeruginosa. Particulars: Example Z. As to the method: (§14) CONTACT GERMICIDAL EFFICIENCY OF N-CHLORAMINES AS A FUNCTION
(§15) ^a Time intervals screened 0.5, 1, 2, 3, 4 and 5 minutes.
(§16) ^a Time intervals screened 0.5, 1, 2, 3, 4, 5, 6, 7, 8, 9 and 10
(§17) ^a Time intervals screened 0.5, 1, 2, 3, 4, and 5 minutes.
(§18) ^b Time intervals screened 0.5, 1, 2, 3, 4, 5, 6, 7, 8, 9 and 10
(§19) Immediately preceding the screen, the compound is weighed and diluted with a buffer or other solvent to give the final concentration desired. The buffer or solvent chosen depends on the conditions of the screen and could be one of the following: 0.1 M NaOAc, pH 4.6; 0.1 M NaH2 PO4, pH 7.0; 0.1 M Na2 B4 O7, pH 8.8; 35% methanol in one of the aforementioned buffers; 10% Triton × 100 in buffer, etc.
(§20) The positive chlorine concentration of the test solution is then determined iodometrically.
(§21) Media used for the Screen are Nutrient Broth, BBL# 11479 and Nutrient Agar, BBL# 11472 prepared according to label directions. The broth is dispensed in 75 ml amounts of flasks for overnight cultures and in 5 ml amounts to culture tubes for subculturing during the Screen. Agar plates are prepared as usual.
(§22) Overnight cultures are prepared by inoculating from stock cultures into the 75 ml flasks of nutrient broth and incubating for 15 hours at 37° C.
(§23) The iodometrically characterized test solution is dispensed in 5 ml amounts to seven small stoppered flasks. The organisms are screened one at a time as follows:
(§24) A 0.2 ml portion of the overnight culture is inoculated into 5 ml of 0.9% NaCl for use in controls. A 0.2 ml portion of the overnight culture is inoculated into a flask containing 5 ml of the test solution, an automatic timer is simultaneously triggered and the solution mixed. At time intervals of 30 seconds, 1, 2, 3, 4, 5, 6, 7, 8, 9, and 10 minutes a loopful of the inoculated solution is subcultured into 5 ml of sterile nutrient broth and mixed by a Vortex Genie Mixer, the high dilution serving to stop the action of the compound. At the end of the ten minute screen, the entire procedure is repeated for each of the remaining six organisms. All of the subculture tubes are incubated at 37° C and checked for signs of growth by turbidity at 24 hr., 48 hr., 3, 5, and 7 days. The earliest subculture time at which no growth is present in the subculture tube is considered the endpoint and is recorded as that time, e.g., 7 minutes.
(§25) The test solution is prepared and characterized as above but is made up at twice the concentration desired. The solution is diluted 1:1 with Rehydrated Tissue Culture Dessicated Horse Serum, Difco #5357-72 and dispensed in a 5 ml amount to a small flask. The mixture is incubated at Room Temperature for 30 minutes to allow denaturation of the compound by the serum and then screened as above.
(§26) The 5 ml mixture of serum and test solution are prepared in sequence to allow as close to 30 minutes as possible before the beginning of the screen of each organism.
as §4

The subject of another data set is S. epidermidis. Kind of data set: Contact germicidal efficiency (sterilization time). The following applies: Example Z, S. pidermidis, pH 4.6. The data set is classed as cell-based, Staphylococcus epidermidis. The protocol:
as §14, §15, §16, §17, §18, §19, §20, §21, §22, §23, §24, §25, §26, §4

The subject of data set [7] is E. coli. Briefly: Contact germicidal efficiency (sterilization time). The data set is classed as cell-based, Escherichia coli. The following applies: Example Z, pH 4.6, in presence of horse serum, 5800 ppm (1057 PPMCl+). The protocol:
(§27) CONTACT GERMICIDAL EFFICIENCY OF
as §15, §16, §17, §18, §19, §20
(§28) Media used for the Screen are Nutrient Broth, BBL# 11479 and Nutrient Agar, BBL# 11472 prepared according to label directions. The broth is dispensed in 75 ml amounts of flasks for overnight cultures and in 5 ml amounts to culture tubes for subculturing during the Screen. Agar plates are prepared as usual. […]
(§29) A 0.2 ml portion of the overnight culture is inoculated into 5 ml of 0.9% NaCl for use in controls. […] The earliest subculture time at which no growth is present in the subculture tube is considered the endpoint and is recorded as that time, e.g., 7 minutes. […]

Data set [8] deals with S. aureus. Kind of data set: Contact germicidal efficiency (sterilization time). The data set is classed as cell-based, Staphylococcus aureus. Particulars: Example Z, pH 4.6, in presence of horse serum, 5800 ppm (1057 PPMCl+). The protocol:
as §27, §15, §16, §17, §18, §19, §20, §28, §29

The next data set relates to B. bronchiseptica. Briefly: Contact germicidal efficiency (sterilization time). Particulars: Example Z. The data set is classed as cell-based, Bordetella bronchiseptica. The protocol: as §14, §15, §16, §17, §18, §19, §20, §21, §22, §23, §24, §25, §26, §4
Data set [9] has as its system K. pneumoniae. Kind of data set: Contact germicidal efficiency (sterilization time). Particulars: Example Z. The data set is classed as cell-based, Klebsiella pneumoniae. As to the method:
as §14, §15, §16, §17, §18, §19, §20, §21, §22, §23, §24, §25, §26, §4

For data set [10] the following is noted: prior art; cited from earlier work.
Where [11] appears, read: pH 4.6, absence of horse serum, IV j 79 ppm (21 PPMCl+), IV k 5800 (1057), IV l 1112 (209).
The mark [12] stands for this setting: pH 4.6, in presence of horse serum, 5800 ppm (1057 PPMCl+).

As for `CCCC(=O)OCC(C)(C)N.Cl` [III b, 2-Amino-2-methyl-1-propyl butyrate hydrochloride], the MIC in the data set with P. aeruginosa [1], against S. aureus [2], against S. pyogenes, against A. niger, with T. mentagrophytes and against E. coli [3] was above 62.5 µg/mL in each case. The MIC with C. albicans and in the data set with K. pneumoniae [4] was above 62.5 µg/mL in each case. For the same compound, in data set [5], the solubility came out at 1070 µg/mL.

As for `CCCCCC(=O)OCC(C)(C)N.Cl` [III d, 2-Amino-2-methyl-1-propyl hexanoate hydrochloride], the MIC in the data set with P. aeruginosa [1] is 62.5 µg/mL; against S. aureus [2], above 62.5 µg/mL; against S. pyogenes it was 62.5 µg/mL; against A. niger, above 62.5 µg/mL; in the data set on T. mentagrophytes it was above 62.5 µg/mL; against E. coli [3] it was above 62.5 µg/mL. Further, the MIC with C. albicans and in the data set on K. pneumoniae [4] was above 62.5 µg/mL each time. The solubility in data set [5] came out at 1040 µg/mL.

In the case of `CCCCCCCC(=O)OCC(C)(C)N.Cl` [III e, 2-Amino-2-methyl-1-propyl octanoate hydrochloride], the MIC in the data set with P. aeruginosa [1], in the data set with S. aureus [2], in the data set on S. pyogenes, with A. niger, against T. mentagrophytes and with E. coli [3] was above 62.5 µg/mL in each case. Further, the MIC against C. albicans and against K. pneumoniae [4] was above 62.5 µg/mL each time. In data set [5], the solubility turned out to be 1040 µg/mL.

In the case of `C[n+]1cccc(C(=O)OCC(C)(C)N(Cl)Cl)c1` [IV k, 2-N,N-Dichloroamino-2-methyl-1-propyl nicotinate methylsulfate], the “Sterilization Time” value with P. aeruginosa [6] (setting [11]) worked out at 2 min; in the data set with P. aeruginosa [6] (setting [12]), 2 min; in the data set with S. epidermidis (absence of horse serum, IV j 79 ppm (21 PPMCl+), IV k 5800 (1057), IV l 1112 (209)) it was 4 min; in the data set with S. epidermidis (in presence of horse serum, 5800 ppm (1057 PPMCl+)) it was 4 min; with E. coli [7], 0.5 min; with S. aureus [8], 6 min. Besides, the “Sterilization Time” value with B. bronchiseptica (setting [11]) was found to be 1 min; with B. bronchiseptica (setting [12]) it was 2 min; in the data set on K. pneumoniae [9] (setting [11]) it was 2 min; with K. pneumoniae [9] (setting [12]) it was 2 min. Moreover, the MIC was above 250 µg/mL against P. aeruginosa [1]; above 250 µg/mL against S. aureus [2]; above 250 µg/mL in the data set with S. pyogenes; 125 µg/mL with A. niger; 125 µg/mL with T. mentagrophytes; above 250 µg/mL against E. coli [3]. Besides, the minimum inhibitory concentration (MIC) against C. albicans and against K. pneumoniae [4] was above 250 µg/mL in each case.

Turning to `NCl` [NH2 Cl, chloramine], the “Deactivation by denaturing agents (e.g., horse serum)” value in [10] is on record as “readily deactivated”.

For the compound `ClNCl` [NHCl2], the “Deactivation by denaturing agents (e.g., horse serum)” value in [10] was “readily deactivated”.
